In EP0086590A1, “Antibacterial agents, their preparation and use” (priority 1982, dated 1983):
≈ marks a conversion by molar mass, not a printed value. Where a name gives a salt, the structure may show the parent alone.

What was measured:
[1] = test system: Proteus mirabilis 977; experiment: Antibacterial activity (mic); format: cell-based
[2] = test system: Staphylococcus aureus Oxford; experiment: Antibacterial activity (mic); format: cell-based
[3] = test system: Pseudomonas aeruginosa Dalgleish; experiment: Antibacterial activity (mic); format: cell-based
[4] = test system: Escherichia coli ESS; experiment: Antibacterial activity (mic); format: cell-based
[5] = test system: Streptococcus faecalis I; experiment: Antibacterial activity (mic); format: cell-based; conditions: Enterococcus faecalis
[6] = test system: Pseudomonas aeruginosa A; experiment: Antibacterial activity (mic); format: cell-based
[7] = test system: Escherichia coli JT39 R+; experiment: Antibacterial activity (mic); format: cell-based
[8] = Effect of serum on antibacterial activity; format: cell-based
[9] = test system: Serratia marcescens NEU3974; experiment: Antibacterial activity (mic); format: cell-based
[10] = test system: Proteus rettgeri WM16; experiment: Antibacterial activity (mic); format: cell-based; conditions: Providencia rettgeri
[11] = test system: Enterobacter cloacae N1; experiment: Antibacterial activity (mic); format: cell-based
[12] = test system: Staphylococcus aureus Russell; experiment: Antibacterial activity (mic); format: cell-based
[13] = test system: Proteus morganii 1580; experiment: Antibacterial activity (mic); format: cell-based; conditions: Morganella morganii
[14] = test system: Escherichia coli 0111; experiment: Antibacterial activity (mic); format: cell-based
[15] = test system: Klebsiella aerogenes A; experiment: Antibacterial activity (mic); format: cell-based
[16] = test system: Bacillus subtilis A; experiment: Antibacterial activity (mic); format: cell-based
[17] = test system: Escherichia coli E96 R+; experiment: Antibacterial activity (mic); format: cell-based
[18] = test system: Proteus mirabilis 13; experiment: Antibacterial activity (mic); format: cell-based
[19] = test system: Pseudomonas aeruginosa 11; experiment: Antibacterial activity (mic); format: cell-based
[20] = test system: Escherichia coli E8; experiment: Antibacterial activity (mic); format: cell-based
[21] = test system: Serratia marcescens US20; experiment: Antibacterial activity (mic); format: cell-based
[22] = Mouse urinary recovery of antibacterial agent; format: in vivo; conditions: urine, sc, 10 mg/kg s/c, parent antibacterial agent administered alone
Procedure: By way of comparison. the parent antibacterial agent of the compound of Example 2 (ie sodium salt of [-2-acetamido- ethenylthio]-6-(I-hydroxysulphonyloxyethyl)-7-oxo-l-azabicyclo[3.2.0]hept-2-ene-2-carboxylic acid) was administered together with the corresponding dipeptidase inhibitor (ie 2-isovaleramidobut-2-ene) in a 1:1 relationship. […] However, since the compound of Example 2 liberates an approximate ratio of 2:1 by weight of antibacterial agent to inhibitor, the compound of Example 2 makes much more efficient use of the dipeptidase inhibitor.

Compound `C/C=C(\NC(=O)CC(C)C)C(=O)OCOC(=O)C1=C(Sc2ncccn2)C[C@@H]2[C@@H]([C@@H](C)O)C(=O)N12` (racemic) [Example 3, 2-Isovaleramidobut-2Z-enoyloxymethyl 5(R,S),6(S,R)-3-(pyrimidin-2-ylthio)-6-[l(R,S)-hydroxyethyl]-7-oxo-1-azabicyclo[3.2.0]hept-2-ene-2-carboxylate] has an MIC [1] of 12.5 µg/mL (≈ 24.8 µM), an MIC [2] of 0.8 µg/mL (≈ 1.59 µM) and an MIC [3] of over 100 µg/mL. The MIC [4] was 1.6 µg/mL (≈ 3.17 µM), the MIC [5] was 50 µg/mL (≈ 99.1 µM) and the MIC [6] was over 100 µg/mL. The MIC [7] was 3.1 µg/mL (≈ 6.14 µM), the “Effect of serum on activity” value [8] was 10-20 fold and the MIC [9] was 100 µg/mL (≈ 198 µM). For the same compound, the MIC [10] was 25 µg/mL (≈ 49.5 µM), the MIC [11] was 25 µg/mL (≈ 49.5 µM) and the MIC [12] was 0.8 µg/mL (≈ 1.59 µM). It also gave an MIC [13] of 25 µg/mL (≈ 49.5 µM), an MIC [14] of 6.2 µg/mL (≈ 12.3 µM) and an MIC [15] of 3.1 µg/mL (≈ 6.14 µM). For the same compound, the MIC [16] was 0.8 µg/mL (≈ 1.59 µM).

Compound `C/C=C(\NC(=O)CC(C)C)C(=O)OCOC(=O)C1=C(S/C=C/NC(C)=O)C[C@@H]2[C@H]([C@H](C)O)C(=O)N12` [Example 1, 2-Isovaleramidobut-2Z-enoyloxymethyl (5R,6R)-3-[(E)-2-acetamidoethenylthio]-6-[(S)-1-hydroxyethyl]-7-oxo-1-azabicyclo[3.2.0]hept-2-ene-2-carboxylate] has an MIC [1] of 3.1 µg/mL (≈ 6.08 µM), an MIC [2] of 0.4 µg/mL (≈ 0.785 µM) and an MIC [3] of 100 µg/mL (≈ 196 µM). The MIC [4] was 0.2 µg/mL (≈ 0.392 µM), the MIC [5] was 3.1 µg/mL (≈ 6.08 µM) and the MIC [17] was 100 µg/mL (≈ 196 µM). For the same compound, the MIC [6] was over 100 µg/mL, the MIC [7] was 25 µg/mL (≈ 49.1 µM) and the MIC [18] was 0.8 µg/mL (≈ 1.57 µM). For the same compound, the “Effect of serum on activity” value [8] was 2-8 fold, the MIC [19] was 100 µg/mL (≈ 196 µM) and the MIC [10] was 6.2 µg/mL (≈ 12.2 µM). For the same compound, the MIC [11] was 6.2 µg/mL (≈ 12.2 µM), the MIC [12] was 0.8 µg/mL (≈ 1.57 µM) and the MIC [13] was 25 µg/mL (≈ 49.1 µM). For the same compound, the MIC [14] was 0.8 µg/mL (≈ 1.57 µM), the MIC [15] was 6.2 µg/mL (≈ 12.2 µM) and the MIC [16] was 0.4 µg/mL (≈ 0.785 µM). The MIC [20] was 0.8 µg/mL (≈ 1.57 µM) and the MIC [21] was 6.2 µg/mL (≈ 12.2 µM).

Compound `CC(=O)NC=CSC1=C(C(=O)O)N2C(=O)C(C(C)O)C2C1` [(A), Sodium (5R,6R)-3-[(E)-2-acetamidoethenylthio]-6-[(S)-1-hydroxyethyl]-7-axo-1-azabicyclo[3.2.0]hept-2-ene-2-carboxylate] has a dose excreted [22] of 0.3%.

For `CC(=O)NC=CSC1=C(C(=O)O)N2C(=O)C(C(C)OS(=O)(=O)O)C2C1` (stereo not drawn) [(B), sodium salt of [-2-acetamido-ethenylthio]-6-(I-hydroxysulphonyloxyethyl)-7-oxo-l-azabicyclo[3.2.0]hept-2-ene-2-carboxylic acid], the dose excreted [22] was 1.5%.

Compound `CC=C(NC(=O)CC(C)C)C(=O)OCOC(=O)C1=C(SC=CNC(C)=O)CC2C(C(C)OS(=O)(=O)O)C(=O)N12` [Example 2, Sodium salt of 2-Isovaleramidobut-2Z-en-oyloxymethyl (5R,6R)-3-[(E)-2-acetamidoethenylthio]-6-[(S)-l-hydroxysulphonyloxyethyl]-7-oxo-l-azabicyclo[3.2.0]hept 2-ene-2-carboxylate] has an MIC [1] of 3.1 µg/mL, an MIC [2] of 1.6 µg/mL and an MIC [3] of 100 µg/mL. The MIC [4] was 1.6 µg/mL, the MIC [5] was 50 µg/mL and the MIC [17] was 12.5 µg/mL. For the same compound, the MIC [6] was 100 µg/mL, the MIC [7] was 1.6 µg/mL and the “Effect of serum on activity” value [8] was 2-4 fold. It also gave an MIC [19] of 100 µg/mL, an MIC [10] of 0.8 µg/mL and an MIC [11] of 3.1 µg/mL. For the same compound, the MIC [12] was 3.1 µg/mL, the MIC [14] was 3.1 µg/mL and the MIC [15] was 0.4 µg/mL. For the same compound, the MIC [16] was 1.6 µg/mL, the MIC [20] was 6.2 µg/mL and the MIC [21] was 6.2 µg/mL.
